According to US20220073536A1 (Rigel Pharmaceuticals, Inc., priority 2003, published 2022):
Like-named read-outs stand apart in the source and are kept apart here. Blank lines part the entries; values can stand above or below the compound they belong to.

Key:
Syk kinase = molecular target: T1, Syk kinase (Homo sapiens, UniProt P43405); assay: Syk kinase biochemical fluorescence polarization assay; conditions: read-out: fp_syk, 11 pt
T1 construct: purchased Upstate, Lake Placid N.Y
Procedure: Many of the 2,4-pyrimidinediamine compounds were tested for the ability to inhibit Syk kinase catalyzed phosphorylation of a peptide substrate in a biochemical fluorescenced polarization assay with isolated Syk kinase. In this experiment, Compounds were diluted to 1% DMSO in kinase buffer (20 mM HEPES, pH 7.4, 5 mM MgCl2, 2 mM MnCl2, 1 mM DTT, 0.1 mg/mL acetylated Bovine Gamma Globulin). Compound in 1% DMSO (0.2% DMSO final) was mixed with ATP/substrate solution at room temperature. Syk kinase (Upstate, Lake Placid N.Y.) was added to a final reaction volume of 20 uL, and the reaction was incubated for 30 minutes at room temperature. […] EDTA (10 mM final)/anti-phosphotyrosine antibody (1× final)/fluorescent phosphopeptide tracer (0.5× final) was added in FP Dilution Buffer to stop the reaction for a total volume of 40 uL according to manufacturer's instructions (PanVera Corporation) The plate was incubated for 30 minutes in the dark at room temperature. Plates were read on a Polarion fluorescence polarization plate reader (Tecan). Data were converted to amount of phosphopeptide present using a calibration curve generated by competition with the phosphopeptide competitor provided in the Tyrosine Kinase Assay Kit, Green (PanVera Corporation).

[1] = test system: cultured human mast cells (CHMC); assay: CHMC low cell density IgE activation: tryptase assay; format: cell-based; conditions: IgE activation
Outline: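 Fluorogenic readout of tryptase released into the supernatant (30 min substrate incubation, room temperature) measures degranulation. Cells were plated at low density (1000–1500/well, varied by donor) and triggered with anti-IgE for 30 min at 37 °C.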

[2] = test system: cultured human mast cells (CHMC); assay: CHMC low cell density ionomycin activation: tryptase assay; format: cell-based; conditions: read-out: LD Tryptase, CHMC, Iono, 3 pt
[3] = Homo sapiens, Mast cell, low cell density CHMC, tryptase release, 8 pt, read-out: LD Tryptase, CHMC, IgE, 8 pt
[4] = Homo sapiens, Mast cell, low cell density CHMC, tryptase, 3 pt, read-out: LD Tryptase, CHMC, IgE, 3 pt
[5] = Homo sapiens, Mast cell, low cell density CHMC, tryptase, 8 pt, read-out: LD Tryptase, CHMC, IgE, 8 pt
[6] = low cell density, 3 pt, read-out: LD Tryptase, CHMC, IgE, 3 pt
[7] = low cell density, 8 pt, read-out: LD Tryptase, CHMC, IgE, 8 pt
[8] = Homo sapiens, Mast cell, low cell density, 3 pt
[9] = Homo sapiens, Mast cell, low cell density, 3 pt, read-out: LD Tryptase, CHMC, IgE, 3 pt
[10] = low cell density CHMC, tryptase, 3 pt
[11] = low cell density CHMC, tryptase, 3 pt, read-out: LD Tryptase, CHMC, IgE, 3 pt
[12] = Homo sapiens, Mast cell, low cell density CHMC, tryptase, 3 pt
[13] = low cell density CHMC, tryptase readout, 3 pt
[14] = low cell density CHMC, tryptase readout, 3 pt, read-out: LD Tryptase, CHMC, IgE, 3 pt
[15] = Homo sapiens, Mast cell, low cell density CHMC, tryptase readout, 3 pt
[16] = Homo sapiens, Mast cell, low cell density CHMC, tryptase readout, 3 pt, read-out: LD Tryptase, CHMC, IgE, 3 pt
[17] = Homo sapiens, Mast cell, low cell density CHMC, tryptase readout, 8 pt, read-out: LD Tryptase, CHMC, IgE, 8 pt

IC50 (Syk kinase; isolated Syk kinase, 11 pt): < 10 µM
IC50 [1, 4]: < 10 µM
IC50 [1, 5]: > 10 µM
Compound: Cc1noc(COc2ccc(Nc3nc(Nc4cc(Cl)c(O)c(Cl)c4)ncc3F)cc2)n1 [Compound 1344, N2-(3,5-Dichloro-4-hydroxyphenyl)-5-fluoro-N4-(4-[3-methyl-1,2,4-oxadiazol-5-yl]methyleneoxyphenyl)-2,4-pyrimidinediamine]

IC50 (Syk kinase; isolated Syk kinase, 11 pt): < 10 µM
IC50 [1, 5]: < 10 µM
Compound: CCN(CC)CCNC(=O)c1ccc(Nc2ncc(F)c(Nc3ccc(OC)c(Cl)c3)n2)cc1 [Compound 1320, N4-(3-Chloro-4-methoxyphenyl)-5-fluoro-N2-(4-[2-[N,N-diethylamino]ethyleneaminocarbonyl]phenyl)-2,4-pyrimidinediamine]

IC50 (Syk kinase; 11 pt): < 10 µM
IC50 [1, 6]: < 10 µM
IC50 [1, 7]: < 10 µM
Compound: Cn1c(N2CCOCC2)nc2cc(Nc3ncc(F)c(Nc4ccc(Cl)c(Cl)c4)n3)ccc21 [Compound 942, N4-(3,4-Dichlorophenyl)-5-fluoro-N2-[1-methyl-2-(4-morpholino)benzimidazol-5-yl]-2,4-pyrimidinediamine]

IC50 [2, 12]: > 10 µM
IC50 [1, 4]: < 10 µM
Compound: CC(=O)N1CCN(c2ccc(Nc3ncc(F)c(NC4CCCC4)n3)cc2)CC1 [Compound 1156, N2-[4-(4-Acetylpiperazino)phenyl]-N4-cyclopentyl-5-fluoro-2,4-pyrimidinediamine]

IC50 [2, 12]: < 10 µM
IC50 [1, 4]: < 10 µM
Compound: CCOC(=O)N1CCN(c2cccc(Nc3ncc(F)c(Nc4cc(C5CC5)n[nH]4)n3)c2)CC1 [Compound 1115]

IC50 [2, 15]: > 10 µM
IC50 [1, 16]: < 10 µM
Compound: CC(=O)N1CCN(c2cccc(Nc3ncc(F)c(NC4CCC4)n3)c2)CC1 [Compound 1085, N2-[3-(4-Acetylpiperazino)phenyl]-N4-cyclobutyl-5-fluoro-2,4-pyrimidinediamine]

IC50 [2, 15]: < 10 µM
IC50 [1, 16]: < 10 µM
Compound: CCOC(=O)c1cc2cccc(Nc3ncc(F)c(NC4CCC4)n3)c2[nH]1 [Compound 1107, N4-Cyclobutyl-N2-[2-(ethoxycarbonyl)indol-7-yl]-5-fluoro-2,4-pyrimidinediamine]

IC50 ([2]; low cell density CHMC, tryptase release, 3 pt): > 10 µM
IC50 ([1]; low cell density CHMC, tryptase release, 3 pt, read-out: LD Tryptase, CHMC, IgE, 3 pt): < 10 µM
IC50 ([1]; low cell density CHMC, tryptase release, 8 pt, read-out: LD Tryptase, CHMC, IgE, 8 pt): < 10 µM
Compound: CNC(=O)COc1cccc(Nc2ncc(F)c(Nc3ccc4c(c3)N(C)C(=O)CS4)n2)c1 [Compound 259, 5-Fluoro-N2-[3-(N-methylamino)carbonylmethyleneoxyphenyl]-N4-(4-methyl-3-oxo-2H-benzo[1,4]thiazin-6-yl)-2,4-pyrimidinediamine]

The remaining lines, values behind:

Compound: C[C@@H]1Oc2ccc(Nc3nc(Nc4ccc5c(c4)c(N)nn5C)ncc3F)cc2NC1=O [Compound 807, (S)-N2-(3-Amino-1-methylindazol-5-yl)-5-fluoro-N4-(2-methyl-3-oxo-4H-benz[1,4]oxazin-6-yl)-2,4-pyrimidinediamine]
IC50 (Syk kinase; isolated Syk kinase, 11 pt): < 10 µM
IC50 [1, 3]: < 10 µM

Compound: COc1ccc(Nc2nc(Nc3cccc(-c4nnc(C(C)(C)C)o4)c3)ncc2F)cc1OC [Compound 530, N2-[ (2-tert-Butyl-1,3,4-oxadiazol-5-yl)phenyl]-N4-(3,4-dimethoxyphenyl)-5-fluoro-2,4-pyrimidinediamine]
IC50 (Syk kinase; 11 pt): < 10 µM
IC50 [1, 6]: < 10 µM
IC50 [1, 7]: < 10 µM

Compound: CNC(=O)COc1ccc(Nc2nc(Nc3ccc4c(ccn4CC(=O)NC)c3)ncc2F)cc1Cl [Compound 652, N4-[3-Chloro-4-(N-methylamino)carbonylmethyleneoxyphenyl]-5-fluoro-N2-[1-(N-methylamino)carbonylmethyleneindol-5-yl]-2,4-pyrimidinediamine]
IC50 (Syk kinase; isolated Syk kinase, 11 point): < 10 µM
IC50 ([1]; Homo sapiens, Mast cell, low cell density CHMC, tryptase release, 8 point, read-out: LD Tryptase, CHMC, IgE, 8 pt): < 10 µM

Compound: CNC(=O)c1ccc(Nc2ncc(F)c(Nc3ccc(Cl)c(C(=O)NC)c3)n2)cc1Cl [Compound 478, N2-[3-Chloro-4-(N-methylamino)carbonylphenyl]-N4-[4-chloro-3-(N-methylamino)carbonylphenyl]-5-fluoro-2,4-pyrimidinediamine]
IC50 [2, 8]: > 10 µM
IC50 [1, 9]: < 10 µM

Compound: CC(C)(C)OC(=O)NC1CCOc2ccc(Nc3nc(Nc4ccc(-c5cnco5)cc4)ncc3F)cc21 (centres unmarked) [Compound 1288, N4-(4-N-tert-Butoxycarbonylamino-3,4-dihydro-2H-1-benzopyran-6-yl)-5-fluoro-N2-[4-(oxazol-5-yl)phenyl]-2,4-pyrimidinediamine]
IC50 [2, 10]: < 10 µM
IC50 [1, 11]: < 10 µM
IC50 ([1]; low cell density CHMC, tryptase, 8 pt, read-out: LD Tryptase, CHMC, IgE, 8 pt): < 10 µM

Compound: Fc1cnc(Nc2ccc(N3CCOCC3)cc2)nc1Nc1cc(C2CC2)n[nH]1 [Compound 1121]
IC50 [2, 12]: > 10 µM
IC50 [1, 4]: < 10 µM
IC50 [1, 5]: < 10 µM

Compound: CCOC(=O)COc1c(C)cc(Nc2ncc(F)c(Nc3ccc4c(n3)NC(=O)C(C)(C)O4)n2)cc1Cl [Compound 1042, N2-(3-Chloro-4-ethoxycarbonylmethyleneoxy-5-methylphenyl)-N4-(2,2-dimethyl-3-oxo-4H-5-pyrid[1,4]oxazin-6-yl)-5-fluoro-2,4-pyrimidinediamine]
IC50 [2, 13]: > 10 µM
IC50 [1, 14]: > 10 µM

Compound: N2-[4-[1- (tert-Butoxycarbonylamino)methylenecarbonylamino]methylphenyl]-N4- (3,4-dichlorophenyl)-5-fluoro-N4-methyl-2,4-pyrimidinediamine [Compound 1311]
IC50 [2, 10]: > 10 µM
IC50 [1, 11]: < 10 µM

Compound: COc1cc(Nc2ncc(F)c(N(C)c3ccc(OC)c(Cl)c3)n2)cc(OC)c1 [Compound 577]
IC50 ([2]; Homo sapiens, Mast cell, low cell density CHMC, tryptase release, 3 point): > 10 µM
IC50 ([1]; Homo sapiens, Mast cell, low cell density CHMC, tryptase release, 3 point, read-out: LD Tryptase, CHMC, IgE, 3 pt): < 10 µM

Compound: CC(C)n1ncc2ccc(Nc3ncc(F)c(Nc4ccc5c(n4)NC(=O)C(C)(C)O5)n3)cc21 [Compound 1050, N4-(2,2-Dimethyl-3-oxo-4H-5-pyrid[1,4]oxazin-6-yl)-N2-(1-isopropylindazol-6-yl)-5-fluoro-2,4-pyrimidinediamine]
IC50 [2, 13]: > 10 µM
IC50 [1, 14]: < 10 µM
IC50 ([1]; low cell density CHMC, tryptase readout, 8 pt, read-out: LD Tryptase, CHMC, IgE, 8 pt): < 10 µM

Compound: COc1cc(Nc2nc(Nc3ccc(N4CCN(C(C)=O)CC4)cc3)ncc2F)cc(OC)c1 [Compound 437]
IC50 [2, 12]: > 10 µM
IC50 [1, 4]: < 10 µM

Compound: COc1cc(Nc2nc(Nc3ccc(OC)nc3OC)ncc2F)cc(OC)c1 [Compound 459]
IC50 [2, 8]: > 10 µM
IC50 [1, 9]: < 10 µM

Compound: O=C1Nc2cc(Nc3nc(Nc4cccc(-c5ncco5)c4)ncc3F)ccc2OC1(F)F [Compound 1284]
IC50 [2, 12]: > 10 µM
IC50 [1, 4]: < 10 µM
IC50 [1, 5]: < 10 µM

Compound: CC(C)(C)c1cc(Nc2nc(Nc3cccc(N4CCOCC4)c3)ncc2F)n[nH]1 [Compound 1090]
IC50 [2, 15]: > 10 µM
IC50 [1, 16]: < 10 µM
IC50 [1, 17]: < 10 µM

Compound: O=C1COc2cc(Nc3nc(Nc4ccc(-c5cnco5)cc4)ncc3F)ccc2N1 [Compound 226]
IC50 ([2]; Homo sapiens, Mast cell, low cell density CHMC, tryptase release, 3 pt): > 10 µM
IC50 ([1]; Homo sapiens, Mast cell, low cell density CHMC, tryptase release, 3 pt, read-out: LD Tryptase, CHMC, IgE, 3 pt): < 10 µM
IC50 [1, 3]: < 10 µM

Compound: CC(=O)N1CCN(c2cccc(Nc3ncc(F)c(Nc4cc(C(C)(C)C)[nH]n4)n3)c2)CC1 [Compound 1091, N2-[3-(4-Acetylpiperazino)phenyl]-N4-(5-tert-butyl-1H-pyrazol-3-yl)-5-fluoro-2,4-pyrimidinediamine]
IC50 [2, 15]: > 10 µM
IC50 [1, 16]: < 10 µM
IC50 [1, 17]: < 10 µM
